Results: ChEMBL document CHEMBL3217570, “A class of novel AA-Trp-Trp-OBzl: synthesis, in vitro anti-proliferation, in vivo anti-tumor action, and intercalation mechanism” (Medchemcomm, 2011)
Active and inactive are the calls of the source. No cut-off for these calls is given here. Residues, ends and D or L forms follow the SMILES beside them. *: point of attachment. OBn = c1ccc(CO*)cc1

Tests used:
CCRF S-180 [1] = assay: Antiproliferative activity against mouse S180 cells after 48 hrs by MTT assay; assay type: functional, cell-based; details: CCRF S-180, 48 h
K562 = assay: Antiproliferative activity against human K562 cells after 48 hrs by MTT assay; assay type: functional, cell-based; details: K562, 48 h
B16 = assay: Antiproliferative activity against mouse B16 cells after 48 hrs by MTT assay; assay type: functional, cell-based; details: B16, 48 h
H22 = assay: Antiproliferative activity against mouse H22 cells after 48 hrs by MTT assay; assay type: functional, cell-based; details: H22, 48 h
HepG2 = assay: Antiproliferative activity against human HepG2 cells after 48 hrs by MTT assay; assay type: functional, cell-based; details: HepG2, 48 h
CCRF S-180 [2] = assay: Antitumor activity against mouse S180 cells allografted in ICR mouse assessed as tumor growth inhibition at 8.9 mg/kg, ip qd for 7 days relative to control; assay type: functional; details: CCRF S-180, ip, 168 h, route intraperitoneal, read-out: TGI
Mus musculus [3] = assay: Toxicity in mouse S180 cells allografted ICR mouse assessed as liver weight at 8.9 mg/kg, ip qd for 7 days relative to control; assay type: organism-based, CCRF S-180; set-up: dose 8.9 mg/kg, route intraperitoneal; details: in vivo, 168 h
Mus musculus [4] = assay: Toxicity in mouse S180 cells allografted ICR mouse assessed as brain weight at 8.9 mg/kg, ip qd for 7 days relative to control; assay type: organism-based, CCRF S-180; set-up: dose 8.9 mg/kg, route intraperitoneal; details: in vivo, 168 h
Mus musculus [5] = assay: Toxicity in mouse S180 cells allografted ICR mouse assessed as kidney weight at 8.9 mg/kg, ip qd for 7 days relative to control; assay type: organism-based, CCRF S-180; set-up: dose 8.9 mg/kg, route intraperitoneal; details: in vivo, 168 h
Mus musculus [6] = assay: Toxicity in mouse S180 cells allografted ICR mouse assessed as spleen index at 8.9 mg/kg, ip qd for 7 days relative to control; assay type: organism-based, CCRF S-180; set-up: dose 8.9 mg/kg, route intraperitoneal; details: in vivo, 168 h
Mus musculus [7] = assay: Toxicity in mouse S180 cells allografted ICR mouse assessed as increase of body weight at 8.9 mg/kg, ip qd for 7 days relative to control; assay type: organism-based, CCRF S-180; set-up: dose 8.9 mg/kg, route intraperitoneal; details: in vivo, 168 h
CCRF S-180 [8] = assay: Antitumor activity against mouse S180 cells allografted in ip dosed ICR mouse assessed as tumor growth inhibition administered qd for 7 days relative to control; assay type: functional, organism-based
CCRF S-180 [9] = assay: Antitumor activity against mouse S180 cells allografted in ICR mouse assessed as tumor growth inhibition at 0.89 mg/kg, ip qd for 7 days relative to control; assay type: functional; details: CCRF S-180, ip, 168 h, route intraperitoneal, read-out: TGI
CCRF S-180 [10] = assay: Antitumor activity against mouse S180 cells allografted in ICR mouse assessed as tumor growth inhibition at 0.089 mg/kg, ip qd for 7 days relative to control; assay type: functional; details: CCRF S-180, ip, 168 h, route intraperitoneal, read-out: TGI
Mus musculus [11] = assay: Neurotoxicity in ICR mouse assessed as neurotoxic behavior up to 500 mg/kg, ip after 7 days; assay type: toxicity, organism-based; set-up: dose 500 mg/kg, route intraperitoneal; details: in vivo, 168 h
Mus musculus [12] = assay: Toxicity in ICR mouse assessed as mortality up to 500 mg/kg, ip after 7 days; assay type: organism-based; set-up: dose 500 mg/kg, route intraperitoneal; details: in vivo, 168 h
Mus musculus [13] = assay: Toxicity in ICR mouse assessed as changes in organs up to 500 mg/kg, ip after 7 days by necropsy analysis; assay type: organism-based; set-up: dose 500 mg/kg, route intraperitoneal; details: in vivo, 168 h
[14] = Acute toxicity in ip dosed ICR mouse after 7 days; assay type: organism-based; details: in vivo
Calf thymus DNA [15] = assay: Binding affinity to 70 uM of calf thymus DNA assessed as decrease in fluorescence intensity at 50 uM by fluorescence spectra analysis; assay type: nucleic-acid assay; set-up: scale not given: the % may be the effect or the level left; details: Bos taurus
Calf thymus DNA [16] = assay: Binding affinity to 10 to 70 uM of calf thymus DNA assessed as decrease in fluorescence intensity at 50 uM by fluorescence spectra analysis; assay type: nucleic-acid assay; details: Bos taurus
Calf thymus DNA [17] = assay: Binding affinity to calf thymus DNA assessed as increase of DNA […] at compound-DNA ratio up to 0.36; assay type: nucleic-acid assay; details: Bos taurus
Calf thymus DNA [18] = assay: Binding affinity to calf thymus DNA assessed as melting temperature at 10 uM; assay type: nucleic-acid assay; details: Bos taurus

| SMILES | IC50 (CCRF S-180 [1]) [µM] | IC50 (K562) [µM] | IC50 (B16) [µM] | IC50 (H22) [µM] | IC50 (HepG2) [µM] | inhibition in vivo at 8.9 mg/kg (CCRF S-180 [2]) [%] | Activity (Mus musculus [3]) | Activity (Mus musculus [4]) | Activity (Mus musculus [5]) | Activity (Mus musculus [6]) | Activity (Mus musculus [7]) | inhibition in vivo at 0.89 mg/kg (CCRF S-180 [9]) [%] | inhibition in vivo at 0.089 mg/kg (CCRF S-180 [10]) [%] | Activity (Mus musculus [11]) | Activity (Mus musculus [12]) | Activity (Mus musculus [13]) | LD50 at 168 h [14] [mg/kg] | other results |
| --- | --- | --- | --- | --- | --- | --- | --- | --- | --- | --- | --- | --- | --- | --- | --- | --- | --- | --- |
| NC(=O)C[C@H](N)C(=O)N[C@@H](Cc1c[nH]c2ccccc12)C(=O)N[C@@H](Cc1c[nH]c2ccccc12)C(=O)OCc1ccccc1 (H-Asn-Trp-Trp-OBn) | 13.5 | 11 | 13.8 | 11 | 11.9 | 85.1 | Non-toxic | Non-toxic | Non-toxic | Non-toxic | Toxic | 46.7 | 26.6 | Non-toxic | Non-toxic | Non-toxic | > 500 | TGI (CCRF S-180 [8]): Dose-dependent effect; Activity (Calf thymus DNA [15]): 35.3%; Activity (Calf thymus DNA [16]): Active; Activity (Calf thymus DNA [17]): Active; Tm (Calf thymus DNA [18]): 20.8 °C |
| N[C@@H](CO)C(=O)N[C@@H](Cc1c[nH]c2ccccc12)C(=O)N[C@@H](Cc1c[nH]c2ccccc12)C(=O)OCc1ccccc1 (H-Ser-Trp-Trp-OBn) | 26.3 | 25.6 | 48.4 | 25.2 | 25.9 | 48.2 | Non-toxic | Non-toxic | Non-toxic | Non-toxic | Toxic |  |  | Non-toxic | Non-toxic | Non-toxic | > 500 |  |
| N[C@@H](Cc1ccc(O)cc1)C(=O)N[C@@H](Cc1c[nH]c2ccccc12)C(=O)N[C@@H](Cc1c[nH]c2ccccc12)C(=O)OCc1ccccc1 (H-Tyr-Trp-Trp-OBn) | 22.9 | 21.3 | 24.8 | 23 | 23.6 | 53.4 | Non-toxic | Non-toxic | Non-toxic | Non-toxic | Toxic |  |  | Non-toxic | Non-toxic | Non-toxic | > 500 |  |
| CC(C)[C@H](N)C(=O)N[C@@H](Cc1c[nH]c2ccccc12)C(=O)N[C@@H](Cc1c[nH]c2ccccc12)C(=O)OCc1ccccc1 (H-Val-Trp-Trp-OBn) | 36.1 | 40.4 | 50.1 | 36 | 37.4 | 33.5 | Non-toxic | Non-toxic | Non-toxic | Non-toxic | Toxic |  |  | Non-toxic | Non-toxic | Non-toxic | > 500 |  |
| Nc1ccn([C@@H]2O[C@H](CO)[C@@H](O)[C@@H]2O)c(=O)n1 [CYTARABINE] | 40.3 | 43.6 | 49.2 | 37.8 | 38.1 | 31.9 |  |  |  |  |  | 20.6 | 7.86 |  |  |  |  |  |
